Reference: patent US7622498B2, “Sugar derivatives comprising oxiranes or α, β-unsaturated δ-lactones, process for their preparation and their utilisation as pesticides” (Instituto Politecnico de Santarem/Escoal Superior Agraria, priority 2004, dated 2009)
Values after ≈ are worked out from the molar mass of the structure shown. “Also recorded” adds a separate entry of the source.

How the values were obtained:
[1] = tested on: brine shrimp A. salina larvae; test: Method F: immersion bioassay of brine shrimp larvae in brine; type: in vivo; details: brine shrimp larvae immersed in brine, 24 hour mortalities
Method: (§1) Immersion Bioassay of Brine Shrimp A. salina Larvae in Brine
(§2) Freshly hatched brine shrimps were prepared by adding aquarium brine shrimp eggs to salt water (15 g sea salt per litre water). The following day hatchlings were separated from eggs and empty egg cases, using their phototropic movement and a Pasteur pipette.
(§3) Into each of a set of small glass vials was pipetted 195 μL of brine containing 5 shrimp larvae, using a micropipette. The solution of the test compound in 5 μL acetone was added, the vial closed and kept at 30±1° C. for observation.
(§4) Dead and alive shrimps were counted, at 1 and 24 hours after treatment, using a microscope. Six concentrations and a control were used with 10 shrimps treated.
(§5) A blank test was performed for comparison of the results.
(§6) Dosages used in insect treatments were based upon the amount of compound applied to each insect. For the shrimps the final concentrations of the compounds in the immersion brine were used.
(§7) The 24 hour mortalities were used to calculate the LD50/LC50 using regression analysis of the probability percent mortality (probit) against log dose/concentration.^30 This was calculated using PoloPC software (LeOra Software, Berkeley, Calif., 1994).

[2] = tested on: adult fruit fly (D. melanogaster); test: Method A: topical treatment of adult fruit fly; type: in vivo, Drosophila melanogaster; details: for LD50: Method A, topical 0.2 μL acetone solution, adult fruit flies, 24 hour mortalities, probit regression; for activity against adult fruit flies (in words): topical treatment, from LD50 values
Method: Topical Treatment of Adult Fruit Fly (D. melanogaster)
A culture of fruit flies (D. melanogaster) was used in the production of adult flies (approx 0.22 mg) of about seven days.
Serial dilutions of the compounds were prepared in acetone, and volumes of approximately 0.2 μL were applied to the ventral surface of each insect, using a calibrated PAX 100 microapplicator and a 1 mL syringe.
The fruit flies, in groups of 5, were anaesthetised using carbon dioxide. Prior to recovery the flies were placed in a containing vial and kept at 30±1° C., for observations of mortality at 1, 2, 3 and 24 hours after treatment.
For this purpose solutions of 6 different concentrations and a control were employed in groups of 12 and 20 insects. Control mortalities were normally zero but occasionally rose to 5-10%.
as §6, §7
In the table are also given the confidence intervals at 95% for the LD50 values, the number of organisms tested, the slope obtained by linear regression and the index g (of significance). Data are considered satisfactory if g is substantially less than 1 and seldom greater than 0.4.^31
As regards the confidence intervals for LD50, the indication (90%) means that the intervals were calculated at 90% and not at 95%.

adult fruit flies = test: Method B: second method for topical treatment of adult fruit flies; type: in vivo, Drosophila melanogaster; details: topical 1 μL acetone solution, 24 hour mortalities
Method: Second Method for Topical Treatment of Adult Fruit Flies
Different dilutions of the compounds in acetone were prepared and applied to individual fruit flies using a Gilson piston micropipette.
Individual flies were held in padded forceps and 1 μL of acetone solution was applied. The acetone was allowed to evaporate before placing the fly into the vial for observation, kept at 30±1° C., following the standard methodology.
as §6, §7

[3] = tested on: glasshouse white fly (T. vaporariorum); test: Method G: foliar treatment of glasshouse white fly on tomato leaves; type: in vivo, Trialeurodes vaporariorum; details: for % Control of White Fly: sprayed on infested tomato leaves, 14 hours; for insecticidal efficacy against adult white fly (in words): spraying infested tomato leaves
Method: Method G Foliar Treatment of Glasshouse White Fly (T. vaporariorum) Seedlings of tomato plants were infested with adult white fly. Selected leaves of the tomato plants were excised and carefully trimmed to 3 leaflets without disturbing the infestation. These were placed in glass tubes containing water and the leaflets were then sprayed on both sides with a small sprayer delivering for each one 200 μL of a solution of the test compound dissolved in 30% acetone in water. Controls were sprayed with the solvent alone. Counts of insects on the individual leaflets were made immediately after spraying and then at 14 hours following. Where single dose treatments were used (in the case of whitefly assays), no statistics are available and the results are expressed as percent effect. Five compounds were tested, which were applied spraying 600 μL of each compound solution (prepared according to method G) on of leaves of tomato plants infested with a known number of adult whitefly. After 14 hours, the number of dead insects (or eventually of insects that disappeared) was counted. These assays were performed at room temperature, between 20 and 25° C.

fruit fly larvae = test: Method D: topical treatment of fruit fly larvae; type: in vivo, Drosophila melanogaster; details: for LD50: Method D, topical 0.2 μL acetone solution, second and third instar fruit fly larvae; for toxicity to fruit fly larvae compared with adult flies (in words): topical treatment of larvae, from LD50 values
Method: Topical Treatment of Fruit Fly Larvae
Fruit fly larvae were separated from the growing medium and second and third instars were topically treated with 0.2 μL acetone solutions of the compounds using a PAX microapplicator.
Larvae were held in padded forceps for dosing and then placed on moistened filter paper, at 30±1° C., for observation.
as §6, §7

[4] = tested on: house fly adults (M. domestica); test: Method E: topical treatment of house fly adults; type: in vivo, Musca domestica; details: topical 1 μL acetone solution, adult house flies, strain Cooper
Method: Topical Treatment of House Fly Adults (M. domestica)
A culture of an insecticide-susceptible strain, Cooper, was established. Three-day-old adult house flies (body weight about […]) were anaesthetised with carbon dioxide. Using the PAX microapplicator, a volume of 1 μL of acetone solution of the test compounds was applied to the dorsal cuticle, holding the fly in padded forceps.
Groups of flies were placed into closed vials, kept at 30±1° C., for observation.
as §6, §7

[5] = Method F: immersion bioassay of brine shrimp larvae in brine; type: in vivo; details: Artemia salina (brine shrimp) larvae, in vivo, brine shrimp larvae immersed in brine, 24 hour mortalities
Method: as §1, §2, §3, §4, §5, §6, §7

Row | Compound | LC50 [1] [µg/mL] | LD50 [2] | activity against adult fruit flies (in words) [2] | also measured
1 | CC1=C[C@H]([C@H]2O[C@@H]3OC(C)(C)O[C@@H]3[C@H]2OCc2ccccc2)OC1=O [Compound 1, 3-O-benzyl-6,7-dideoxy-1,2-O-isopropylidene-7-methyl-α-D-gluco-oct-6-enefuranurono-8,5-lactone] | 100.62 (≈ 290 µM) | 0.00002 μg/insect | extremely active | –
2 | CC1=C[C@H]([C@H]2O[C@@H]3OC(C)(C)O[C@@H]3[C@@H]2OCc2ccccc2)OC1=O [Compound 2, 3-O-benzyl-6,7-dideoxy-1,2-O-isopropylidene-7-methyl-α-D-alo-oct-6-enefuranurono-8,5-lactone] | 64.30 (≈ 186 µM) | 2.27 × 10^−6 μg/insect | extremely active | LD50 (adult fruit flies): 0.00398 μg/insect
3 | CC1(C)O[C@H]2O[C@H]([C@H]3C=CC(=O)O3)[C@@H](OCc3ccccc3)[C@H]2O1 [Compound 3, 3-O-benzyl-6,7-dideoxy-1,2-O-isopropylidene-α-D-alo-oct-6-enefuranurono-8,5-lactone] | 144.71 (≈ 435 µM) | 5.02 × 10^−6 μg/insect | extremely active | % Control of White Fly ([3]; concentration 1.3 μg/mL): 0%
4 | CC1(C)O[C@H]2O[C@H]([C@H]3C=CC(=O)O3)[C@H](OCc3ccccc3)[C@H]2O1 [Compound 4, 3-O-benzyl-6,7-dideoxy-1,2-O-isopropylidene-α-D-gluco-oct-6-enefuranurono-8,5-lactone] | 358.92 (≈ 1080 µM) | 0.00012 μg/insect | high toxicity against adult fruit flies | % Control of White Fly ([3]; concentration 2.5 μg/mL): 50%; insecticidal efficacy against adult white fly (in words) [3]: show efficacy as insecticides; also recorded: promising for activity against the white fly
5 | CC(=O)OC[C@H]1OC(=O)C(Br)=C[C@@H]1OC(C)=O [Compound 5, 4,6-di-O-acetyl-2-bromo-2,3-dideoxy-D-erythro-hex-2-enone-1,5-lactone] | 38.36 (≈ 125 µM) | 0.00016 μg/insect | – | LD50 (fruit fly larvae): 4.75 μg/insect; toxicity to fruit fly larvae compared with adult flies (in words) (fruit fly larvae): less toxic for larvae than for adult flies; LD50 [4]: 1.065 μg/insect
6 | CC1(C)OC2OC(C3CC(C)([Se]c4ccccc4)C(=O)O3)C(OCc3ccccc3)C2O1 [Compound 8, (7R)-/(7S)-3-O-Benzyl-6,7-dideoxy-1,2-O-isopropylidene-7-methyl-7-phenylselenyl-α-D-gluco-octofuranurono-8,5-lactone] | 220.41 (≈ 438 µM) | 0.00037 μg/insect | – | toxicity to fruit fly larvae compared with adult flies (in words) (fruit fly larvae): less toxic for larvae than for adult flies; LD50 [4]: 0.644 μg/insect
7 | CO[C@H]1O[C@H]([C@@H]2CO2)[C@@H]2O[C@H]12 [Compound 9, Methyl 2,3:5,6-Dianhydro-β-L-gulofuranoside] | 671.50 (≈ 4250 µM) | 0.00003 μg/insect | extremely active; also recorded: high toxicity against adult fruit flies | % Control of White Fly ([3]; concentration 2.5 μg/mL): 85%; insecticidal efficacy against adult white fly (in words) [3]: show efficacy as insecticides; also recorded: promising for activity against the white fly
8 | O=[N+]([O-])NC1=NCCN1Cc1ccc(Cl)nc1 [Imidacloprid, imidacloprid, reference compound] | – | 0.01253 μg/insect | – | LC50 at 24 h [5]: 0.0312 µg/mL (≈ 0.122 µM)
9 | (7R)-/(7S)-3,6,7-Trideoxy-1,2-O-isopropylidene-7-methyl-7-phenylselenyl-α-D-ribo-octofuranurono-8,5-lactone [Compound 7] | 261.04 | 0.0002 μg/insect | – | LD50 (fruit fly larvae): 0.968 μg/insect; % Control of White Fly ([3]; concentration 4.8 μg/mL): 0%
10 | methyl (7R)-/(7S)-2,3-anhydro-6,7-dideoxy-7-methyl-7-phenylselenyl-α-gulo-octofuranurono-8,5-lactone [Compound 6] | 125.48 | 0.00015 μg/insect | – | % Control of White Fly ([3]; concentration 1.3 μg/mL): 0%
